The target of this experiment is dFASN (FASN1), recombinant full-length (Drosophila melanogaster, UniProt B7Z001). The experiment is described as follows: NADPH oxidation FASN activity assay, Michaelis-Menten fit. The format is biochemical. The note with it: 240 µM NADPH, 58 µM malonyl-CoA fixed.
Sequence of dFASN (FASN1), recombinant full-length (B7Z001 1-2540): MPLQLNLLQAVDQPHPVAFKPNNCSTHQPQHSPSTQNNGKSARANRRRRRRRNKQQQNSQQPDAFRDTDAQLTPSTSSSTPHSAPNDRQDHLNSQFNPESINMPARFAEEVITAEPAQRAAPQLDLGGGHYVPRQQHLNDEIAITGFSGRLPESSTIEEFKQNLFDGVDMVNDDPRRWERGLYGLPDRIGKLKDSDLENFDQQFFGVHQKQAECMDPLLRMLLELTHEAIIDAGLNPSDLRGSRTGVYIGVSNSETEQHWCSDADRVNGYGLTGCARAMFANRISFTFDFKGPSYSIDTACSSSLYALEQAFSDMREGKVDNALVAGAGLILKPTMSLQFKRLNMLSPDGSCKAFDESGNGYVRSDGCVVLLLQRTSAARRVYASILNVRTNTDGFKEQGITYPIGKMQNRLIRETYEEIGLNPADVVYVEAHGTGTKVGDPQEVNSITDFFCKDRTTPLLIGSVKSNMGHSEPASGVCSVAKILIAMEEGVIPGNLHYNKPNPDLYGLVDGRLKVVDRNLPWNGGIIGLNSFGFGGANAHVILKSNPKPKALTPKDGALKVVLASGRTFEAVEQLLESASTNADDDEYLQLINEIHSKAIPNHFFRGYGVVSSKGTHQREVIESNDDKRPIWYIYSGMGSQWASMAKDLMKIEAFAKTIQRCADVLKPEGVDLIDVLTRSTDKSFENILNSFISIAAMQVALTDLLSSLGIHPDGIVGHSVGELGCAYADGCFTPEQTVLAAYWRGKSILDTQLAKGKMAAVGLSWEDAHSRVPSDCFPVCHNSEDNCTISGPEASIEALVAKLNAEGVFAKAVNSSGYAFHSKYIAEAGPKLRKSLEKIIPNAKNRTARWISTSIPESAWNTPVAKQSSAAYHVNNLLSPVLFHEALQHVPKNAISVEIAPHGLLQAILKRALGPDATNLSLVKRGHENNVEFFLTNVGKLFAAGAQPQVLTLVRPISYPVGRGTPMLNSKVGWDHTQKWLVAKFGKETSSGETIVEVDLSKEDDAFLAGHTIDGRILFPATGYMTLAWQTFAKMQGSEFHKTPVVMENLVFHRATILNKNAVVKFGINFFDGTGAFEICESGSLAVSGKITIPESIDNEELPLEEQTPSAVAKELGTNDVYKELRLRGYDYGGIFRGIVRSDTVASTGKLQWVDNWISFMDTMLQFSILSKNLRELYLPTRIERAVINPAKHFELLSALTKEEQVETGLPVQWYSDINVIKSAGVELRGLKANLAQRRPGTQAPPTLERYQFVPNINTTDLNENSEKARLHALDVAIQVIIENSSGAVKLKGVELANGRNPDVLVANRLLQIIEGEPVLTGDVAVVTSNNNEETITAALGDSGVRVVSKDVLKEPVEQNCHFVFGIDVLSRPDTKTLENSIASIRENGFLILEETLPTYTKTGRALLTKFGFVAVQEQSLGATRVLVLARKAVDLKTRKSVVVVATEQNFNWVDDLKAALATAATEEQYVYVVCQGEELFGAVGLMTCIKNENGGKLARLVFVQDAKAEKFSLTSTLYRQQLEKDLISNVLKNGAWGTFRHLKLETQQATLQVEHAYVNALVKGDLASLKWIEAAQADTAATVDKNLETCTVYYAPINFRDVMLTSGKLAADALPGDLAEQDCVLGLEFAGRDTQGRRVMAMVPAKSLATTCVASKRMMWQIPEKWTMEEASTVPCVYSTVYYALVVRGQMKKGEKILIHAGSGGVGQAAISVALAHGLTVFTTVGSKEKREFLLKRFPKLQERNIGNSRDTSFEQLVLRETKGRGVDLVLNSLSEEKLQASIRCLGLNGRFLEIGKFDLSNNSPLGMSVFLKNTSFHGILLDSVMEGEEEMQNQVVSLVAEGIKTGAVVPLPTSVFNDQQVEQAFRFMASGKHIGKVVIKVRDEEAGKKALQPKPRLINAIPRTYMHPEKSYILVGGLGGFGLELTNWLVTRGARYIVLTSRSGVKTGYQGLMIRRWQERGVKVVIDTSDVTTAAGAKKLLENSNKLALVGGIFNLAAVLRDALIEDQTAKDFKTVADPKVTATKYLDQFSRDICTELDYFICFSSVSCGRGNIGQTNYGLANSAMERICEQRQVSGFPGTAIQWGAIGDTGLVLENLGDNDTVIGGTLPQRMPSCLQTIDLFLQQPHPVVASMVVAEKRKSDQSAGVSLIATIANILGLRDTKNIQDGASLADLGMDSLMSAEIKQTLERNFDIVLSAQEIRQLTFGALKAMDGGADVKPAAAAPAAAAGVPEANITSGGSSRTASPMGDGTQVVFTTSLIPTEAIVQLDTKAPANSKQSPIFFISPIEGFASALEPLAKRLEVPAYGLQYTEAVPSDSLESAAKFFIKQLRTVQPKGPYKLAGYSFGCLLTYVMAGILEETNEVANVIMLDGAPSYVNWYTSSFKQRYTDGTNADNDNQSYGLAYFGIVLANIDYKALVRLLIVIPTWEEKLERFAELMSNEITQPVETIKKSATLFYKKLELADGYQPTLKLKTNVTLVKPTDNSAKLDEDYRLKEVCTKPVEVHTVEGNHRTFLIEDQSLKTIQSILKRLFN

For `CC(=O)SCCNC(=O)CCNC(=O)[C@H](O)C(C)(C)COP(=O)(O)OP(=O)(O)OC[C@H]1O[C@@H](n2cnc3c(N)ncnc32)[C@H](O)[C@@H]1OP(=O)(O)O` [acetyl-CoA], the Km entry is “Steady-state kinetics over AcCoA was also evaluated”.

These data come from PMC9894184 (Proceedings of the National Academy of Sciences of the …, 2022).
